Laboratory results published in patent US8648081B2 (Eli Lilly and Company, priority 2011, dated 2014).

System: Lone star tick larvae (Amblyomma americanum)
Assay: In Vitro Larval Immersion Microassay (LIM)
Details: read-out: % Efficacy (percent larval mortality)
Method: In Vitro Larval Immersion Microassay (LIM)
The larval immersion microassay may be conducted as described in White, et al., J. Med. Entomol. […] Briefly, experimental test articles are formulated in dimethylsulfoxide (DMSO) to prepare a stock solution at a concentration of 10 mM. […] Approximately 30-50 Lone star tick larvae (Amblyomma americanum) are submerged into each well containing experimental test articles. After a 30 minute immersion period, larvae are removed with a wide-bore pipette tip in 0.05 ml of fluid, dispensed into a commercial paper tissue biopsy bag which is sealed at the top with a plastic dialysis clip, inverted and allowed to air dry for 60 minutes. Bags containing larvae are then incubated at approximately 27 degrees Celsius and >90% relative humidity. After 24 hours, bags are opened, live and dead larvae are counted and percent larval mortality is calculated as follows: % Efficacy=(# dead larvae)/(# total larvae)×100.

Structure (SMILES) | mortality at 300 µM [%]
O=C1CCC(NC(=O)c2sc(C3=NOC(c4cc(Cl)cc(Cl)c4)(C(F)(F)F)C3)c3c2CCC3)CC1 (stereo not shown) [Example 85, 3-(5-(3,5-dichloro-phenyl)-5-(trifluoro-methyl)-4,5-dihydro-isoxazol-3-yl)-N-(4-oxocyclohexyl)-5,6-dihydro-4H-cyclopenta[c] thiophene-1-carboxamide] | ≥ 80
C#CCNC(=O)CNC(=O)c1sc(C2=NO[C@@](c3cc(Cl)c(F)c(Cl)c3)(C(F)(F)F)C2)c2c1CCC2 [Example 249, (S)-3-(5-(3,5-dichloro-4-fluorophenyl)-5-(trifluoromethyl)-4,5-dihydroisoxazol-3-yl)-N-(2-oxo-2-(prop-2-ynylamino)ethyl)-5,6-dihydro-4H-cyclopenta[c]thiophene-1-carboxamide] | ≥ 80
O=C(N[C@@H]1CCNC1=O)c1sc(C2=NO[C@@](c3cc(Cl)cc(Cl)c3)(C(F)(F)F)C2)c2c1CCCC2 [Example 87b, 3-((S)-5-(3,5-dichlorophenyl)-5-(trifluoromethyl)-4,5-dihydroisoxazol-3-yl)-N—((R)-2-oxopyrrolidin-3-yl)-4,5,6,7-tetrahydrobenzo[c]thiophene-1-carboxamide] | ≥ 80
O=C1CCCC(NC(=O)c2sc(C3=NOC(c4cc(Cl)cc(Cl)c4)(C(F)(F)F)C3)c3c2CCCC3)C1 (stereo not shown) [Example 38, 3-(5-(3,5-dichloro-phenyl)-5-(trifluoro-methyl)-4,5-dihydro-isoxazol-3-yl)-N-(3-oxocyclohexyl)-4,5,6,7-tetrahydrobenzo [c]thiophene-1-carboxamide] | ≥ 80
O=C(CNC(=O)c1cnc2sc(C3=NOC(c4cc(Cl)cc(Cl)c4)(C(F)(F)F)C3)cc2c1)NCC(F)(F)F (stereo not shown) [Example 240, 2-(5-(3,5-dichlorophenyl)-5-(trifluoromethyl)-4,5-dihydroisoxazol-3-yl)-N-(2-oxo-2-(2,2,2-trifluoroethylamino)ethyl)thieno[2,3-b]pyridine-5-carboxamide] | ≥ 80
O=C(N[C@@H]1CCNC1=O)c1sc(C2=NOC(c3cc(Cl)c(F)c(Cl)c3)(C(F)(F)F)C2)c2c1CCC2 (stereo partly drawn) [Example 58, 3-(5-(3,5-dichloro-4-fluorophenyl)-5-(trifluoromethyl)-4,5-dihydroisoxazol-3-yl)-N-((R)-2-oxopyrrolidin-3-yl)-5,6-dihydro-4H-cyclopenta[c] thiophene-1-carboxamide] | ≥ 80
O=C(NC1CCN(CC(F)(F)F)C1=O)c1sc(C2=NOC(c3cc(Cl)c(Cl)c(Cl)c3)(C(F)(F)F)C2)c2c1CCC2 (stereo not shown) [Example 56, N-(2-oxo-1-(2,2,2-trifluoroethyl)pyrrolidin-3-yl)-3-(5-(3,4,5-trichlorophenyl)-5-(trifluoromethyl)-4,5-dihydroisoxazol-3-yl)-5,6-dihydro-4H-cyclopenta[c] thiophene-1-carboxamide] | ≥ 80
O=C(CNC(=O)c1sc(C2=NO[C@@](c3cc(Cl)c(F)c(Cl)c3)(C(F)(F)F)C2)c2c1CCC2)NCC(F)(F)F [Example 243, (S)-3-(5-(3,5-dichloro-4-fluorophenyl)-5-(trifluoromethyl)-4,5-dihydroisoxazol-3-yl)-N-(2-oxo-2-(2,2,2-trifluoroethylamino)ethyl)-5,6-dihydro-4H-cyclopenta[c]thiophene-1-carboxamide] | ≥ 80
C#CCNC(=O)CNC(=O)c1sc(C2=NOC(c3cc(Cl)c(Cl)c(Cl)c3)(C(F)(F)F)C2)c2c1CCC2 (stereo not drawn) [Example 55, N-(2-oxo-2-(prop-2-ynylamino)ethyl)-3-(5-(3,4,5-trichlorophenyl)-5-(trifluoromethyl)-4,5-dihydroisoxazol-3-yl)-5,6-dihydro-4H-cyclo-penta[c]thiophene-l-carboxamide] | ≥ 80
O=C(NC1CCN(CC(F)(F)F)C1=O)c1sc(C2=NOC(c3cc(Cl)c(F)c(Cl)c3)(C(F)(F)F)C2)c2c1CCCC2 (stereo not shown) [Example 82] | ≥ 80
Cc1ccc2sc(C3=NOC(c4cc(Cl)cc(Cl)c4)(C(F)(F)F)C3)cc2c1 (stereo not shown) [Example 236, 5-(3,5-dichloro-phenyl)-3-(5-methyl-benzo[b]thiophen-2-yl)-5-(trifluoro-methyl)-4,5-dihydro-isoxazole] | ≥ 80
N#CCNC(=O)CNC(=O)c1sc(C2=NOC(c3cc(Cl)c(F)c(Cl)c3)(C(F)(F)F)C2)c2c1CCCC2 (stereo not shown) [Example 50, N-(2-(cyanomethyl-amino)-2-oxoethyl)-3-(5-(3,5-dichloro-4-fluorophenyl)-5-(trifluoromethyl)-4,5-dihydroisoxazol-3-yl)-4,5,6,7-tetrahydrobenzo [c]thiophene-1-carboxamide] | ≥ 80
O=C(N[C@@H]1CCNC1=O)c1cnc2sc(C3=NOC(c4cc(Cl)cc(Cl)c4)(C(F)(F)F)C3)cc2c1 (stereo partly drawn) [Example 241, 2-(5-(3,5-dichloro-phenyl)-5-(trifluoro-methyl)-4,5-dihydro-isoxazol-3-yl)-N-((R)-2-oxopyrrolidin-3-yl)thieno[2,3-b] pyridine-5-carboxamide] | ≥ 80
O=C(CNC(=O)c1sc(C2=NOC(c3cc(Cl)c(F)c(Cl)c3)(C(F)(F)F)C2)c2c1CCC2)NCC(F)F (stereo not shown) [Example 244, 3-[5-(3,5-dichloro-4-fluoro-phenyl)-5-trifluoromethyl-4,5-dihydro-isoxazol-3-yl]-5,6-dihydro-4H-cyclopenta[c]thiophene-1-carboxylic acid [(2,2-difluoro-ethylcarbamoyl)-methyl]-amide] | ≥ 80
O=C(NC1CCOCC1)c1sc(C2=NOC(c3cc(Cl)c(Cl)c(Cl)c3)(C(F)(F)F)C2)c2c1CCCC2 (stereo not shown) [Example 77, N-(tetrahydro-2H-pyran-4-yl)-3-(5-(3,4,5-trichlorophenyl)-5-(trifluoromethyl)-4,5-dihydroisoxazol-3-yl)-4,5,6,7-tetrahydrobenzo[c] thiophene-1-carboxamide] | ≥ 80
C#CCNC(=O)CNC(=O)c1sc(C2=NOC(c3cc(Cl)cc(Cl)c3)(C(F)(F)F)C2)c2c1CCCC2 (stereo not shown) [Example 95, 3-(5-(3,5-dichlorophenyl)-5-(trifluoromethyl)-4,5-dihydroisoxazol-3-yl)-N-(2-oxo-2-(prop-2-ynylamino)ethyl)-4,5,6,7-tetrahydrobenzo [c]thiophene-1-carboxamide] | ≥ 80
O=C(NC1CCN(C2CC2)C1=O)c1sc(C2=NOC(c3cc(Cl)c(Cl)c(Cl)c3)(C(F)(F)F)C2)c2c1CCCC2 (stereo not shown) [Example 78, N-(1-cyclopropyl-2-oxopyrrolidin-3-yl)-3-(5-(3,4,5-trichloro-phenyl)-5-(trifluoro-methyl)-4,5-dihydro-isoxazol-3-yl)-4,5,6,7-tetrahydrobenzo[c] thiophene-1-carboxamide] | ≥ 80
O=C(NC1CCCOC1)c1sc(C2=NOC(c3cc(Cl)cc(Cl)c3)(C(F)(F)F)C2)c2c1CCCC2 (stereo not shown) [Example 69] | ≥ 80
O=C(Nc1ccc(F)cn1)c1sc(C2=NOC(c3cc(Cl)cc(Cl)c3)(C(F)(F)F)C2)c2c1CCCC2 (stereo not shown) [Example 68, 3-(5-(3,5-dichloro-phenyl)-5-(trifluoro-methyl)-4,5-dihydro-isoxazol-3-yl)-N-(5-fluoropyridin-2-yl)-4,5,6,7-tetrahydro-benzo[c]thiophene-1-carboxamide] | ≥ 80
O=C(CNC(=O)c1sc(C2=NOC(c3cc(Cl)c(Cl)c(Cl)c3)(C(F)(F)F)C2)c2c1CCCC2)NCC(F)(F)F (stereo not shown) [Example 44, N-(2-oxo-2-(2,2,2-trifluoroethylamino)ethyl)-3-(5-(3,4,5-trichlorophenyl)-5-(trifluoromethyl)-4,5-dihydroisoxazol-3-yl)-4,5,6,7-tetrahydrobenzo [c]thiophene-1-carboxamide] | ≥ 80
O=C(NC1CCN(CC(F)(F)F)C1=O)c1sc(C2=NOC(c3cc(Cl)cc(Cl)c3)(C(F)(F)F)C2)c2c1CCCC2 (stereo not shown) [Example 40, 3-[5-(3,5-Dichloro-phenyl)-5-trifluoro-methyl-4,5-dihydro-isoxazol-3-yl]-4,5,6,7-tetrahydro-benzo[c] thiophene-1-carboxylic acid [2-oxo-1-(2,2,2-trifluoro-ethyl)-pyrrolidin-3-yl]-amide] | ≥ 80
O=C(N[C@@H]1CCNC1=O)c1sc(C2=NOC(c3cc(Cl)cc(Cl)c3)(C(F)(F)F)C2)c2c1CCC2 (stereo partly drawn) [Example 41, 3-(5-(3,5-dichloro-phenyl)-5-(trifluoro-methyl)-4,5-dihydro-isoxazol-3-yl)-N-((R)-2-oxopyrrolidin-3-yl)-5,6-dihydro-4H-cyclopenta[c] thiophene-1-carboxamide] | ≥ 80
O=C(NC1CCS(=O)(=O)CC1)c1sc(C2=NOC(c3cc(Cl)c(Cl)c(Cl)c3)(C(F)(F)F)C2)c2c1CCCC2 (stereo not shown) [Example 75, 3-[5-(3,4,5-Trichloro-phenyl)-5-trifluoro-methyl-4,5-dihydro-isoxazol-3-yl]-4,5,6,7-tetrahydro-benzo[c]thiophene-1-carboxylic acid (1,1-dioxo-hexahydro-thiopyran-4-yl)-amide] | ≥ 80
N#CCNC(=O)CNC(=O)c1sc(C2=NOC(c3cc(Cl)cc(Cl)c3)(C(F)(F)F)C2)c2c1CCC2 (stereo not shown) [Example 42, N-(2-(cyanomethyl-amino)-2-oxoethyl)-3-(5-(3,5-dichlorophenyl)-5-(trifluoromethyl)-4,5-dihydroisoxazol-3-yl)-5,6-dihydro-4H-cyclopenta[c]thiophene-1-carboxamide] | ≥ 80

Same assay, conditions: tested at 300 micromolar, 30 minute immersion, mortality counted after 24 hours, read-out: % Efficacy (percent larval mortality)

Structure (SMILES) | mortality at 300 µM [%]
C#CCNC(=O)CNC(=O)c1sc(C2=NOC(c3sc(Cl)c(Cl)c3Cl)(C(F)(F)F)C2)c2c1CCCC2 (stereo not shown) [Example 74, N-(2-oxo-2-(prop-2-ynylamino)ethyl)-3-(5-(3,4,5-trichloro-thiophen-2-yl)-5-(trifluoromethyl)-4,5-dihydroisoxazol-3-yl)-4,5,6,7-tetrahydro-benzo[c]thiophene-1-carboxamide] | ≥ 80
